For one data set, the target named is T1, human H3 receptor (Homo sapiens, UniProt Q9Y5N1).
T1 construct: expressed in transfected cells
Briefly: Human H3 radioligand binding ([3H]-N-alpha-methylhistamine, SPA). Conditions: human H3 binding, Table D; read-out: Human H3 Ki. A digest of the protocol: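 Compounds (0.01 nM-30 μM) competed with approximately 1 nM [3H]-N-alpha-methylhistamine for human H3 receptor in membranes of stably transfected CHO cells, 10 μg protein per well, in Tris-HCl pH 7.4/MgCl2/BSA buffer for 4 h at room temperature. Bound radioligand measured by scintillation proximity; 10 μM clobenpropit gave non-specific binding.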

The target in data set [1] is T2, rat histamine H3 receptor (Rattus norvegicus, UniProt Q9QYN8).
T2 construct: encoding the entire 445-amino-acid rat histamine H3 receptor; expressed in transfected cells; membrane preparation
Briefly: Rat H3 radioligand binding ([3H]-N-alpha-methylhistamine, SPA). The following applies: rat H3 binding, Table D; read-out: Rat H3 Ki. A digest of the protocol: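 SPA-bead binding assay using [3H]-N-alpha-methylhistamine (approximately 1 nM final) with test compounds from 0.01 nM to 30 μM. Rat H3 receptor membranes came from stably transfected CHO-A3 cells; incubation ran 4 h at room temperature, in the dark, in Tris pH 7.4 buffer with MgCl2 and BSA. Clobenpropit (10 μM) gave non-specific binding.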

T2 sequence (Q9QYN8 whole entry): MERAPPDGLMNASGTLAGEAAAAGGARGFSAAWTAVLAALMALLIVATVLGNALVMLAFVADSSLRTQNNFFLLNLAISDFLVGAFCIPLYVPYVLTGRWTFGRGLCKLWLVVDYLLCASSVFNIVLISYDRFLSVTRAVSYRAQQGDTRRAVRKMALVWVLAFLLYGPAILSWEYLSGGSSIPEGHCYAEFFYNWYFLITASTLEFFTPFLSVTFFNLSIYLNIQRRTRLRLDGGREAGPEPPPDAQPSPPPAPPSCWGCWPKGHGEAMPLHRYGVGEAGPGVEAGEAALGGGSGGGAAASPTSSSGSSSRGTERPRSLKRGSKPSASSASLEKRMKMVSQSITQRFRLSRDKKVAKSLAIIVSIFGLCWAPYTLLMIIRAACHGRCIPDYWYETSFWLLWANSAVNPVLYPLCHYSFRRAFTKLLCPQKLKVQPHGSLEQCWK
T1 sequence (Q9Y5N1 whole entry): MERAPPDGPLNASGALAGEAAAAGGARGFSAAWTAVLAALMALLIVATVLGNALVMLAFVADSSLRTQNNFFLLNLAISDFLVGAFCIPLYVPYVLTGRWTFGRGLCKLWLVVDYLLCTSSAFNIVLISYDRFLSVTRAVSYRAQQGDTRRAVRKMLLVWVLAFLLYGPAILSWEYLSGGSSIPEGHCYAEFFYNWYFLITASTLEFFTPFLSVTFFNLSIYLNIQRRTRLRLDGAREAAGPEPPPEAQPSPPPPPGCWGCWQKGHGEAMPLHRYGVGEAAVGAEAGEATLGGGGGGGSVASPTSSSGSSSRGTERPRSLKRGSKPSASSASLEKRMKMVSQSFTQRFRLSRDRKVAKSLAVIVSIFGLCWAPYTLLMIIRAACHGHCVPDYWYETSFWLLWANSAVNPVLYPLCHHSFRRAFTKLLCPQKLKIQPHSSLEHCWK

For the compound `CN(C)C(=O)c1cnc(COc2ccc3c(c2)CCC2(CCN(C4CCC4)CC2)O3)cn1` [Example 619], the melting point (as a rule, the temperature of the solid-liquid transition) is 120 to 123 °C. Besides, the Ki – broadly, a measure of affinity in units of concentration, obtained from inhibition or displacement – on human H3 receptor was less than 200 nM. For the same compound, the Ki in data set [1] was less than 200 nM.

The compound `CNS(=O)(=O)c1ccc(-c2ccc3c(c2)COC2(CCN(C4CCC4)CC2)O3)cc1Cl` [Example 620] had a melting point of 127 to 129 °C. At human H3 receptor, the inhibitory constant (Ki) is less than 200 nM. In data set [1], the Ki is less than 200 nM.

As for `CN(C)S(=O)(=O)c1ccc(-c2ccc3c(c2)COC2(CCN(C4CCC4)CC2)O3)cc1Cl` [Example 621], the melting point was 97 to 99 °C. Also, the Ki on human H3 receptor was less than 200 nM. For the same compound, in data set [1], the Ki is less than 200 nM.

Take `CS(=O)(=O)c1ccc(-c2ccc3c(c2)COC2(CCN(C4CCC4)CC2)O3)cc1Cl` [Example 622]: the melting point was in the range of 198 to 201 °C. In addition, on human H3 receptor, the Ki is less than 200 nM. The Ki in data set [1] was less than 200 nM.

`CN(C)C(=O)c1cc(COc2ccc3c(c2)CCC2(CCN(C4CCC4)CC2)O3)ccn1` [Example 623] registered a melting point of 165 to 167 °C. Moreover, at human H3 receptor, the Ki was less than 200 nM. Also, the Ki in data set [1] was less than 200 nM.

On to `COc1cc(-c2ccc3c(c2)COC2(CCN(C4CCC4)CC2)O3)ccc1C(=O)O` [Example 624], for which the melting point lay in the range of 173 to 175 °C. For the same compound, at human H3 receptor, the Ki was less than 200 nM. Besides, in data set [1], the Ki was 200 to 1000 nM.

For `CCS(=O)(=O)c1ccc(-c2ccc3c(c2)COC2(CCN(C4CCC4)CC2)O3)cc1Cl` [Example 625], the melting point lay within 157 to 159 °C. Also, the Ki at human H3 receptor was less than 200 nM. Also, in data set [1], the inhibition constant Ki was less than 200 nM.

As to `CCOCC1CCN(c2ccc3c(c2)CCC2(CCN(C4CCC4)CC2)O3)CC1` [Example 626], the melting point was 101.6 to 103.2 °C. The Ki at human H3 receptor was less than 200 nM. The Ki in data set [1] is less than 200 nM.

Regarding `CCOCC1CCN(c2ccc3c(c2)COC2(CCN(C4CCC4)CC2)O3)CC1` [Example 627], the melting point lay within 85.2 to 86.5 °C. Besides, on human H3 receptor, the Ki is less than 200 nM. Moreover, in data set [1], the Ki was less than 200 nM.

`Cc1noc(C2CCN(c3ccc4c(c3)COC3(CCN(C5CCC5)CC3)O4)CC2)n1` [Example 628] showed a melting point of 125 to 126.2 °C. The Ki on human H3 receptor was less than 200 nM. Further, the inhibition constant (Ki) in data set [1] was less than 200 nM.

As for `COc1ncc(-c2ccc3c(c2)COC2(CCN(C4CCC4)CC2)O3)cc1Cl` [Example 629], the melting point lay within 174 to 175 °C. For the same compound, the Ki at human H3 receptor was less than 200 nM. Besides, in data set [1], the Ki is less than 200 nM.

As for `COC(=O)CCc1ccc2c(c1)COC1(CCN(C3CCC3)CC1)O2` [Example 630], the melting point was 66 to 68 °C. Besides, on human H3 receptor, the Ki was less than 200 nM. Also, in data set [1], the Ki was less than 200 nM.

For `O=C(NC1CCOCC1)c1ccc(-c2ccc3c(c2)COC2(CCN(C4CCC4)CC2)O3)s1` [Example 631], the melting point fell in the range of 209 to 211 °C. Besides, on human H3 receptor, the Ki is less than 200 nM. Moreover, the inhibition constant Ki in data set [1] was less than 200 nM.

As for `COCC1CCN(c2ccc3c(c2)COC2(CCN(C4CCC4)CC2)O3)CC1` [Example 632], the melting point fell in the range of 92.3 to 94.2 °C. Besides, on human H3 receptor, the Ki is less than 200 nM. In data set [1], the Ki was less than 200 nM.

As to `CNC(=O)c1ccc(-c2ccc3c(c2)COC2(CCN(C4CCC4)CC2)O3)cc1OC` [Example 633], the melting point lay within 175 to 177 °C. For the same compound, the Ki at human H3 receptor was less than 200 nM. Moreover, the Ki in data set [1] is less than 200 nM.

Regarding `COCCNC(=O)c1ccc(-c2ccc3c(c2)COC2(CCN(C4CCC4)CC2)O3)cc1OC` [Example 634], the melting point is 50 to 52 °C. For the same compound, the Ki on human H3 receptor is less than 200 nM. Besides, in data set [1], the Ki is less than 200 nM.

The compound `COc1cc(-c2ccc3c(c2)COC2(CCN(C4CCC4)CC2)O3)ccc1C(=O)NC1CCOCC1` [Example 635] yielded a melting point of 86 to 88 °C. The Ki on human H3 receptor was less than 200 nM. For the same compound, in data set [1], the inhibition constant (Ki) was less than 200 nM.

Compound `COc1cc(-c2ccc3c(c2)COC2(CCN(C4CCC4)CC2)O3)ccc1C(=O)N1CCOCC1` [Example 636] gave a melting point of 94 to 96 °C. Further, on human H3 receptor, the Ki is less than 200 nM. Also, the Ki in data set [1] is less than 200 nM.

`CN(C)C(=O)c1ccc(-c2ccc3c(c2)COC2(CCN(C4CCC4)CC2)O3)nc1` [Example 638] came in with a melting point of 190 to 193 °C. Further, the inhibitory constant (Ki) at human H3 receptor was less than 200 nM. The Ki in data set [1] was less than 200 nM.

With `O=C(NC1CCOCC1)c1ccc(-c2ccc3c(c2)COC2(CCN(C4CCC4)CC2)O3)cn1` [Example 639], the melting point lay in the range of 108 to 110 °C. The inhibition constant Ki on human H3 receptor was less than 200 nM. The Ki in data set [1] was less than 200 nM.

As to `O=C(NC1CCOCC1)c1ccc(-c2ccc3c(c2)COC2(CCN(C4CCC4)CC2)O3)cc1F` [Example 640], the melting point lay within 165 to 167 °C. Also, the Ki on human H3 receptor was less than 200 nM. The Ki in data set [1] was less than 200 nM.

Regarding `OCc1ccc(-c2ccc3c(c2)COC2(CCN(C4CCC4)CC2)O3)s1` [Example 641], the melting point is 168 to 169 °C. At human H3 receptor, the Ki was less than 200 nM. Besides, in data set [1], the Ki is less than 200 nM.

`O=C(c1ccc(-c2ccc3c(c2)COC2(CCN(C4CCC4)CC2)O3)cc1F)N1CCOCC1` [Example 642] had a melting point of 161 to 162 °C. Also, the Ki at human H3 receptor was less than 200 nM. The Ki in data set [1] is less than 200 nM.

As for `O=C(c1ccc(-c2ccc3c(c2)COC2(CCN(C4CCC4)CC2)O3)s1)N1CCOCC1` [Example 643], the melting point is 166 to 167 °C. Moreover, at human H3 receptor, the Ki was less than 200 nM. The inhibition constant (Ki) in data set [1] is less than 200 nM.

Regarding `COCCNC(=O)CCc1ccc2c(c1)COC1(CCN(C3CCC3)CC1)O2` [Example 644], the melting point was 68 to 70 °C. In addition, the Ki at human H3 receptor was less than 200 nM. Further, the Ki in data set [1] fell in the range of 200 to 1000 nM.

`O=C(CCc1ccc2c(c1)COC1(CCN(C3CCC3)CC1)O2)NC1CCOCC1` [Example 645] returned a melting point of 167 to 169 °C. Further, the Ki on human H3 receptor was less than 200 nM. The Ki in data set [1] lay within 200 to 1000 nM.

`O=C(NC1CCOCC1)c1cccc(COc2ccc3c(c2)CCC2(CCN(C4CCC4)CC2)O3)c1` [Example 646] had a melting point of 158 to 160 °C. For the same compound, the Ki on human H3 receptor was less than 200 nM. Besides, in data set [1], the Ki was less than 200 nM.

As for `O=C(NC1CCOCC1)c1ccc(COc2ccc3c(c2)CCC2(CCN(C4CCC4)CC2)O3)cc1` [Example 647], the melting point was 174 to 176 °C. For the same compound, on human H3 receptor, the inhibitory constant (Ki) is less than 200 nM. In data set [1], the Ki was less than 200 nM.

In the case of `CCS(=O)(=O)C1CCN(c2ccc3c(c2)COC2(CCN(C4CCC4)CC2)O3)CC1` [Example 648], the melting point was 147.7 to 149.8 °C. For the same compound, the Ki at human H3 receptor is less than 200 nM. For the same compound, the Ki in data set [1] was less than 200 nM.

With `COc1ccc(-c2ccc3c(c2)COC2(CCN(C4CCC4)CC2)O3)nc1` [Example 650], the melting point was in the range of 123 to 126 °C. The inhibition constant Ki at human H3 receptor is less than 200 nM. Further, in data set [1], the inhibition constant Ki was less than 200 nM.

With `Cc1cc(=O)[nH]cc1-c1ccc2c(c1)COC1(CCN(C3CCC3)CC1)O2` [Example 651], the melting point fell in the range of 217 to 220 °C. Besides, the Ki on human H3 receptor is less than 200 nM. Further, the Ki in data set [1] was less than 200 nM.

`CS(=O)(=O)c1ccc(-c2ccc3c(c2)COC2(CCN(C4CCC4)CC2)O3)s1` [Example 652] showed a melting point of 159 to 161 °C. Moreover, the Ki on human H3 receptor was less than 200 nM. In addition, the Ki in data set [1] is less than 200 nM.

In turn, `CNC(=O)CCc1ccc2c(c1)COC1(CCN(C3CCC3)CC1)O2` [Example 653] yielded a melting point of 86 to 88 °C. The Ki on human H3 receptor is less than 200 nM. In data set [1], the Ki is less than 200 nM.

For the compound `CN(C)S(=O)(=O)c1ccc(-c2ccc3c(c2)COC2(CCN(C4CCC4)CC2)O3)s1` [Example 654], the melting point lay in the range of 189 to 192 °C. Moreover, at human H3 receptor, the Ki was less than 200 nM. In data set [1], the inhibition constant (Ki) is less than 200 nM.

Consider `CS(=O)(=O)c1cncc(-c2ccc3c(c2)COC2(CCN(C4CCC4)CC2)O3)c1` [Example 655], for which the melting point was in the range of 148 to 149 °C. In addition, the Ki on human H3 receptor is less than 200 nM. The Ki in data set [1] was less than 200 nM.

For the compound `CC(C)S(=O)(=O)C1CCN(c2ccc3c(c2)COC2(CCN(C4CCC4)CC2)O3)CC1` [Example 656], the melting point lay in the range of 142.6 to 145.1 °C. On human H3 receptor, the Ki was less than 200 nM. For the same compound, the inhibition constant (Ki) in data set [1] is less than 200 nM.

`Cc1nnc(C2CCN(c3ccc4c(c3)COC3(CCN(C5CCC5)CC3)O4)CC2)o1` [Example 657] showed a melting point of 75.5 to 77.8 °C. Moreover, at human H3 receptor, the inhibition constant (Ki) is less than 200 nM. For the same compound, the Ki in data set [1] was less than 200 nM.

In turn, `O=c1[nH]cc(-c2ccc3c(c2)COC2(CCN(C4CCC4)CC2)O3)cc1Cl` [Example 658] gave a melting point of 221.5 to 223.7 °C. Besides, at human H3 receptor, the Ki is less than 200 nM. Further, the Ki in data set [1] was less than 200 nM.

For `Cn1cc(-c2ccc3c(c2)COC2(CCN(C4CCC4)CC2)O3)ccc1=O` [Example 659], the melting point was in the range of 170 to 173 °C. Further, the Ki at human H3 receptor was less than 200 nM. In addition, the Ki in data set [1] is less than 200 nM.

On to `O=C(CCc1ccc2c(c1)COC1(CCN(C3CCC3)CC1)O2)N1CCOCC1` [Example 660], for which the melting point fell in the range of 71 to 73 °C. For the same compound, the Ki at human H3 receptor was less than 200 nM. Further, in data set [1], the inhibition constant Ki was less than 200 nM.

For `CCS(=O)(=O)c1ccc(-c2ccc3c(c2)COC2(CCN(C4CCC4)CC2)O3)s1` [Example 661], the melting point was in the range of 150 to 152 °C. Also, the Ki at human H3 receptor is less than 200 nM. Besides, the Ki in data set [1] is less than 200 nM.

The values are drawn from patent publication US8513232B2, “Substituted spirocyclic piperidine derivatives as histamine-3 (H3) receptor ligands” (Cephalon, Inc., priority 2008, dated 2013).
